Results as given in PMC9596378, “Discovery and molecular basis of subtype-selective cyclophilin inhibitors” (Nature Chemical Biology, 2022).
Several values for one entry are separate records, joined by “and”; a condition that tells them apart may be missing. Identical values can stand only once. Like-named read-outs stand apart in the source and are kept apart here.

Assays:
Experiment in all cases: Chymotrypsin coupled prolyl-isomerase assay
[1] = molecular target: T1, CypG (Homo sapiens, UniProt Q13427); assay type: biochemical; conditions: wild-type CypG; read-out: Wild-Type Cyclophilin Prolyl Isomerase Inhibition IC50 Values, CypG
T1 construct: PPIG (UniProtKB Entry Q13427: residues 1–179); His6 with thrombin site (pET28a LIC leader) (N); host or cells: E. coli BL21(DE3)
T1 sequence (Q13427 1-179): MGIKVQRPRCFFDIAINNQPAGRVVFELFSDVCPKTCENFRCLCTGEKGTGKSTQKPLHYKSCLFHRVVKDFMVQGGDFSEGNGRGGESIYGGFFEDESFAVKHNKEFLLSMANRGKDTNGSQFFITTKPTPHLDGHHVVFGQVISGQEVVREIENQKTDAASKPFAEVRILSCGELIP
Summary of the method: (§1)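 5 nM Cyp, HEPES pH 7.3/NaCl/Triton buffer, 2–3 °C; cpd 5 min, chymotrypsin 25 µM 5 min, then Suc-AAPF-AMC 5 µM in LiCl/TFE. Kinetic fluorescence 330 s. Per-well rate constants, normalized, IC50 from nonlinear fit.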

[2] = molecular target: T2, CypH (Homo sapiens, UniProt O43447); assay type: biochemical; conditions: for CypH prolyl-isomerase assay raw dose-response value: Fig. 3b source data, replicates
T2 construct: PPIH (UniProtKB Entry O43447: residues 1–177); His6 with TEV site (2BT vector leader) (N); made in house; host or cells: E. coli BL21(DE3)
Summary of the method: as §1

[3] = molecular target: Cyp40 (Homo sapiens, UniProt Q08752); conditions: for Cyp40 prolyl-isomerase assay raw dose-response value: Fig. 3b source data, replicates
Summary of the method: as §1

[4] = molecular target: T3, NKTR (Homo sapiens, UniProt P30414); assay type: biochemical; conditions: for NKTR prolyl-isomerase assay raw dose-response value: Fig. 3b source data, replicates
T3 construct: NKTR (UniProtKB Entry P30414: residues 7–179); host or cells: E. coli BL21(DE3)
T3 sequence (P30414 7-179): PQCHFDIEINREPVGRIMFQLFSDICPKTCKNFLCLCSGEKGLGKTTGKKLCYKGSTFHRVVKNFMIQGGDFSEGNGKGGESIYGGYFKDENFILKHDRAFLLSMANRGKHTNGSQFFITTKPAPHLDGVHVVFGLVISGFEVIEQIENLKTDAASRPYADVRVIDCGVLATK

[5] = molecular target: T4, PPIL1 (Homo sapiens, UniProt Q9Y3C6); assay type: biochemical; conditions: for PPIL1 prolyl-isomerase assay raw dose-response value: Fig. 3b source data, replicates
T4 construct: PPIL1 (UniProtKB Entry Q9Y3C6: residues 1–166); made in house; host or cells: E. coli BL21(DE3)
T4 sequence (Q9Y3C6 1-166): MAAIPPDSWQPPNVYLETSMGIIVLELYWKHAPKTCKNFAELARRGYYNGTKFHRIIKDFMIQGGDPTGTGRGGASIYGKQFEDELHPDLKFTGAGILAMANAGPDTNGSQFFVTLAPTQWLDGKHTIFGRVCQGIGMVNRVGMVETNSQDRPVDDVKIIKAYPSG

Chain of Cyp40 (Q08752 1-183): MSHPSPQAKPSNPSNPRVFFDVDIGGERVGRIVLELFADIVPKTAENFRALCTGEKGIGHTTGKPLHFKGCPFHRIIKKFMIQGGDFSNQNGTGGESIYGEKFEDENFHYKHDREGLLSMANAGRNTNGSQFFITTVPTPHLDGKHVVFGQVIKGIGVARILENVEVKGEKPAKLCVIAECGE
T2 sequence (O43447 whole entry, the tested form may be a part): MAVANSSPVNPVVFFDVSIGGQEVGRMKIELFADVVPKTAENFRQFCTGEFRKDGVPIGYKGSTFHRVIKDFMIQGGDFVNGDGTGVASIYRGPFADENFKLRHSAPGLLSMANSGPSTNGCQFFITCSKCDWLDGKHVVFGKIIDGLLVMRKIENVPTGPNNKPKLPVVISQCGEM

## NCCOCCNC(=O)[C@@H]1CCNC(=O)/C=C/C(=O)N2CCC[C@](Cc3ccccc3)(C2)C(=O)N[C@@H](Cc2ccc(-c3ccc(CCC(=O)O)cc3)cc2)C(=O)NCc2ccccc2CC(=O)N1 [Compound B23]
[1]
  IC50: 5 µM
[2]; Dose 0.0201875 µM
  CypH prolyl-isomerase assay raw dose-response value: 0.05491 and 0.05835 and 0.05541
[2]; Dose 0.0605624 µM
  CypH prolyl-isomerase assay raw dose-response value: 0.04538 and 0.05559 and 0.06086
[2]; Dose 0.181687 µM
  CypH prolyl-isomerase assay raw dose-response value: 0.05774 and 0.04961 and 0.05822
[2]; Dose 0.545062 µM
  CypH prolyl-isomerase assay raw dose-response value: 0.05324 and 0.05013 and 0.05095
[2]; Dose 1.63519 µM
  CypH prolyl-isomerase assay raw dose-response value: 0.05541 and 0.05439 and 0.06013
[2]; Dose 4.90556 µM
  CypH prolyl-isomerase assay raw dose-response value: 0.05126 and 0.04228 and 0.05669
[2]; Dose 14.7167 µM
  CypH prolyl-isomerase assay raw dose-response value: 0.04371 and 0.04194 and 0.04598
[2]; Dose 44.15 µM
  CypH prolyl-isomerase assay raw dose-response value: 0.03624 and 0.03187 and 0.03195
[2]; prolyl-isomerase inhibition, 5 nM cyclophilin, read-out: IC50 CypH
  IC50: ~30 µM
[2]; wild-type CypH, read-out: Wild-Type Cyclophilin Prolyl Isomerase Inhibition IC50 Values, CypH
  IC50: 30 µM
[3]; Dose 0.0201875 µM
  Cyp40 prolyl-isomerase assay raw dose-response value: 0.0705 and 0.08875 and 0.06706
[3]; Dose 0.0605624 µM
  Cyp40 prolyl-isomerase assay raw dose-response value: 0.06428 and 0.07232 and 0.08253
[3]; Dose 0.181687 µM
  Cyp40 prolyl-isomerase assay raw dose-response value: 0.08019 and 0.07121 and 0.08682
[3]; Dose 0.545062 µM
  Cyp40 prolyl-isomerase assay raw dose-response value: 0.05956 and 0.06358 and 0.0778
[3]; Dose 1.63519 µM
  Cyp40 prolyl-isomerase assay raw dose-response value: 0.04659 and 0.04863 and 0.05555
[3]; Dose 4.90556 µM
  Cyp40 prolyl-isomerase assay raw dose-response value: 0.02767 and 0.03026 and 0.03081
[3]; Dose 14.7167 µM
  Cyp40 prolyl-isomerase assay raw dose-response value: 0.0182 and 0.01915 and 0.02408
[3]; Dose 44.15 µM
  Cyp40 prolyl-isomerase assay raw dose-response value: 0.01601 and 0.01375 and 0.01814
[3]; Wild-Type Cyclophilin Prolyl Isomerase Inhibition IC50 Values, Cyp40, wild-type Cyp40
  IC50: 1.7 µM
[4]; Dose 0.0201875 µM
  NKTR prolyl-isomerase assay raw dose-response value: 0.03059 and 0.03481 and 0.04051
[4]; Dose 0.0605624 µM
  NKTR prolyl-isomerase assay raw dose-response value: 0.03143 and 0.03531 and 0.03914
[4]; Dose 0.181687 µM
  NKTR prolyl-isomerase assay raw dose-response value: 0.02923 and 0.03481 and 0.03355
[4]; Dose 0.545062 µM
  NKTR prolyl-isomerase assay raw dose-response value: 0.03762 and 0.03481 and 0.03206
[4]; Dose 1.63519 µM
  NKTR prolyl-isomerase assay raw dose-response value: 0.03593 and 0.02854 and 0.03455
[4]; Dose 4.90556 µM
  NKTR prolyl-isomerase assay raw dose-response value: 0.0369 and 0.03251 and 0.03563
[4]; Dose 14.7167 µM
  NKTR prolyl-isomerase assay raw dose-response value: 0.03118 and 0.02949 and 0.02947
[4]; Dose 44.15 µM
  NKTR prolyl-isomerase assay raw dose-response value: 0.02842 and 0.02625 and 0.02899
[4]; wild-type NKTR, read-out: Wild-Type Cyclophilin Prolyl Isomerase Inhibition IC50 Values, NKTR
  IC50: > 100 µM
[5]; Dose 0.0201875 µM
  PPIL1 prolyl-isomerase assay raw dose-response value: 0.07231 and 0.05967 and 0.06308
[5]; Dose 0.0605624 µM
  PPIL1 prolyl-isomerase assay raw dose-response value: 0.05364 and 0.0572 and 0.05937
[5]; Dose 0.181687 µM
  PPIL1 prolyl-isomerase assay raw dose-response value: 0.04207 and 0.04374 and 0.05902
[5]; Dose 0.545062 µM
  PPIL1 prolyl-isomerase assay raw dose-response value: 0.02667 and 0.03161 and 0.02807
[5]; Dose 1.63519 µM
  PPIL1 prolyl-isomerase assay raw dose-response value: 0.01818 and 0.02247 and 0.01913
[5]; Dose 4.90556 µM
  PPIL1 prolyl-isomerase assay raw dose-response value: 0.01354 and 0.01399 and 0.01299
[5]; Dose 14.7167 µM
  PPIL1 prolyl-isomerase assay raw dose-response value: 0.01244 and 0.01258 and 0.01177
[5]; Dose 44.15 µM
  PPIL1 prolyl-isomerase assay raw dose-response value: 0.01521 and 0.01086 and 0.01169
[5]; wild-type PPIL1, read-out: Wild-Type Cyclophilin Prolyl Isomerase Inhibition IC50 Values, PPIL1
  IC50: 0.13 µM
